Here are results for four molecules from patent US12117402B2, “Bioluminescent sensor for isothiocyanates” (The United States of America, as represented by the …, priority 2021, dated 2024).

Data set [1] deals with P. fluorescens SBW25 expressing an ilux operon under control of the saxA promoter. Type of data set: cell-based, Pseudomonas fluorescens SBW25. The conditions noted are these: for responsiveness of the biosensor to the compound: FIG. 4. On the procedure: (§1) For the basic microplate assay, the reporter biosensor was cultivated overnight in LB media with 50 μg/mL carbenicillin and 15 μg/mL gentamicin. The 200 μL assay was performed in opaque 96-well microtiter plates by adding ITC sample to the reporter cells at a final concentration of 0.05 OD600 in LB medium. All assay plates included cell-only controls (no ITC sample). Luminescence was measured in either a microplate spectrophotometer (Biotek Synergy HT) or a designated luminometer (Molecular Devices Spectramax L) for a 20-hour period in 15-minute intervals with ˜500 RPM shaking. Data were collected using auto-scaled gain or photon counting to increase signal detection. Modifications to the assay for the luxCDABE-based biosensor included a lower bacterial OD600 of 0.005, incubation at 31° C., and measurement every 30 min.
To increase the luminescent signal, the luxCDABE operon of the pHT #3 plasmid was replaced with the enhanced ilux operon that has an additional open reading frame encoding flavin mononucleotide (FMN) reductase and other optimizations (Gregor et al, Proc. Natl. Acad. Sci., (2018) 115(3): 962-967). All other components remained the same as the precursor, and this plasmid was assembled using the Gibson Assembly method (Gibson et al, Nature Meth., (2009) 6(5):343-347). The resulting plasmid, named pHT #9, was integrated into the P. fluorescens SBW25 genome in the same manner as pHT #3.
Plant extracts were prepared from seeds germinated in small petri dishes containing 0.5×Murashige and Skoog Medium and 0.3% agar for up to 4-days under artificial lighting. Germinated seeds and/or seedlings were transferred to 2-mL screwcap tubes containing steel beads. Water was added at a 1:2 ratio of plant weight to water volume. The tissue was macerated and pelleted by centrifugation. Supernatants were diluted prior to use in the basic microplate protocol.
To analyze the ability of the biosensor to detect ITCs in plant residues, seed meal was incubated on a rotating shaker at room temperature for 24 hrs with a 1:10 seed meal:water ratio (by mass) in 2.0 mL microcentrifuge tubes. Centrifuging and assaying of supernatant were conducted as described above for seedlings. Two seed meal types were tested—Sinapis alba (white mustard) and Brassica juncea (Indian mustard)—both of which are used in commercial biofumigation.
Biofumigated soil was collected from a field study in Hermiston, Oregon. The soils were managed in a 3-yr rotation with a Brassica cover crop mix (B. juncea Caliente 199 and Caliente Rojo; allyl ITC). The Brassica cover crop was tilled into the soil the day prior to sampling and the soils were stored frozen until analysis. […] Frozen soils were thawed and subsamples were homogenized (1600 MiniG homogenizer, 1500 RPM, 7 min), and rotated at room temperature for 45 min to allow time for glucosinolate hydrolysis. The sample was centrifuged for 5 min at 4,000×g and 100 μL extract was used in the basic microplate assay.
For analysis of seed meal amended soil, B. napus and S. alba seed meals were each added to a moist silt loam soils at 0.3% and 3% weight/dry weight. The soil/seed meals were mixed, transferred to small zippered bags and stored in gas-impermeable bags at room temperature. Soil amended with wheat straw and unamended soil were included as ITC-free controls.

For data set [2] the following is noted: aqueous solutions, pH 6; cited from earlier work.
Data set [3] relates to P. fluorescens SBW25 expressing the luxCDABE operon under control of the saxA promoter.
Description: The plasmid vector pUC18T-Tn7T-lux-Gm (Damron et al., Appl. Environ. Microbiol. (2013) 79(13): 4149-4153), which contains Tn7 sites for integration into the P. fluorescens genome, a luxCDABE operon responsible for bioluminescence, and a gentamicin resistance marker. This plasmid also contained a pl promoter, an unregulated promoter upstream of the luxCDABE operon, which was removed and replaced with the desired promoter.
The saxA promoter was PCR amplified from Pseudomonas cannabina and cloned upstream of the luxCDABE gene operon. […] The resulting plasmid containing the luxCDABE operon under control of the saxA promoter was termed pHT #3. This plasmid was transformed into P. fluorescens SBW25, via electroporation and selected for gentamicin resistance.
as §1

Turning to `Oc1ccc(CN=C=S)cc1` [4-hydroxybenzyl ITC], the “responsiveness of the biosensor to the compound” value (“responsiveness of the biosensor” below) in data set [1] is “did not respond”. Further, the half-life in data set [2] was 6 min.
In the case of `CNC(=S)S` [Metam-sodium], the “responsiveness of the biosensor” value in data set [1] is given as “responsive”.
For the molecule `N#C[S-].[K+]` [potassium thiocyanate], in data set [1], the “responsiveness of the biosensor” value is “did not respond”.
As for `C[S+]([O-])CCCCN=C=S` (centres unmarked) [sulforaphane], in data set [3] (0, 25, 50, 75, 100 μM), the “response of luminescence to the amount of ITC” value is listed as “dose dependent response”. In addition, in data set [3] (100 μM of ITC), the “area under the curve (AUC) value of luminescence” value is recorded as 1.5×10^7 and the peak luminescence entry is given as “approximately 700 relative light units (RLUs)”. Further, the “time of peak luminescence after inoculation” value in data set [3] (regardless of the concentration, 0-100 μM) was in the range of 8 to 9 h. In data set [1], the “time of initial peak luminescence” value is 4 to 4.5 h and the “responsiveness of the biosensor” value is on record as “responsive”. The “response of luminescence to the amount of ITC” value in data set [1] (0, 5, 10, 25, 50, 75, 100 μM) was “dose-dependent response”. Besides, in data set [1] (100 μM dose), the “increase in AUC compared to the luxCDABE biosensor” value came out at 2 fold and the “increase in the maximum RLU compared to the luxCDABE biosensor” value is 7.7 fold. Further, the “concentrations detected (limits of detection)” value in data set [1] (low-dose range 0-20 μM) lay in the range of 1 to 2 µM.

As a reminder, the half-life is the time needed for the level to fall by half in the phase considered.
